This note sets out measurements from US20080312287A1, “Compound and Methods For the Treatment of Cancer and Malaria” (University of Washington, priority 2005, published 2008).

Series [1] can be described thus: Liver microsome metabolism (mouse). The conditions noted are these: female. Background: Microsomes from liver hold many membrane-bound enzymes, among them those of drug oxidation.
Procedure: (§2) Microsome metabolism. Liver microsome metabolism assays were performed with female pooled microsomes from BD Biosciences (20 mg/mL). Reaction wells containing: phosphate buffer (232 μL, 0.6 M), MgCl2 (12.0 μL, 0.1 M), EDTA (0.8 μL, 0.5 M), 10x NADPH regenerating system (40.0 μL), Glucoide-6-phosphate deghydrogenase (0.8 μL, 500 U/mL), milliq water (267.8 μL), and liver microsomes (10.0 μL, 20 mg/mL) were heated at 37° C. for 10 mins. To each reaction well was added inhibitor (200 μM, 2.0 μL) in DMSO. Reaction vessels were quenched with acetonitrile (75 μL) and internal standard at designated time points, and the sample immediately frozen (−20° C.). Metabolites and unreacted inhibitor were quantified by mass spectral analysis.
The target in a further series is Rat FTase (Rattus norvegicus, UniProt Q02293+Q04631). Kind of series: Rat farnesyltransferase IC50 determination. The format is biochemical. The conditions noted are these: concentration decreasing transferase activity twofold.
The next series has as its system P. falciparum 3D7. Briefly: P. falciparum ED50 determination, [3H]-hypoxanthine incorporation, strain 3D7. The class given is cell-based, Plasmodium falciparum. The conditions noted are these: concentration decreasing hypoxanthine incorporation into parasites twofold, read-out: ED50 3D7. A digest of the protocol:
(§1)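 Cultures at 0.5% parasitemia and 0.5% hematocrit, in RPMI with 20% human A+ plasma, were exposed to compound for 48 h at 37° C under 5% CO2/5% O2. [3H]-hypoxanthine was then added for 24 h more. Incorporation, corrected for uninfected erythrocytes and normalised to DMSO wells, gave ED50 by linear regression.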

The target of the next series is T1, PfPFT (Plasmodium falciparum, UniProt Q8I503+Q8IHP6).
T1 sequence (Q8I503 1-521): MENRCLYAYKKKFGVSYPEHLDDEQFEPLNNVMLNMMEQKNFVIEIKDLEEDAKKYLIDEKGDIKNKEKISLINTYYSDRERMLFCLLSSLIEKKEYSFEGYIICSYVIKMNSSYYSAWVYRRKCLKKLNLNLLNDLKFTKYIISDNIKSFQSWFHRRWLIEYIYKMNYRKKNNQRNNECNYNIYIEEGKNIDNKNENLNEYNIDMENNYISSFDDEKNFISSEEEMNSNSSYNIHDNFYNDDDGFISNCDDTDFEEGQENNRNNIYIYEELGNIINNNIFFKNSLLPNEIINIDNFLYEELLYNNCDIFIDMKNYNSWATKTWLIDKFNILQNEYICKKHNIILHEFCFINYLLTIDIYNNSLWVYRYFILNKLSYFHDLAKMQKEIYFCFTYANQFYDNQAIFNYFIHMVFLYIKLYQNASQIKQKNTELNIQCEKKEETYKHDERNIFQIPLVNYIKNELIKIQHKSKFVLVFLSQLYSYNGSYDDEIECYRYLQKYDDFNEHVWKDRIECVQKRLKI
T1 sequence (Q8IHP6 1-923): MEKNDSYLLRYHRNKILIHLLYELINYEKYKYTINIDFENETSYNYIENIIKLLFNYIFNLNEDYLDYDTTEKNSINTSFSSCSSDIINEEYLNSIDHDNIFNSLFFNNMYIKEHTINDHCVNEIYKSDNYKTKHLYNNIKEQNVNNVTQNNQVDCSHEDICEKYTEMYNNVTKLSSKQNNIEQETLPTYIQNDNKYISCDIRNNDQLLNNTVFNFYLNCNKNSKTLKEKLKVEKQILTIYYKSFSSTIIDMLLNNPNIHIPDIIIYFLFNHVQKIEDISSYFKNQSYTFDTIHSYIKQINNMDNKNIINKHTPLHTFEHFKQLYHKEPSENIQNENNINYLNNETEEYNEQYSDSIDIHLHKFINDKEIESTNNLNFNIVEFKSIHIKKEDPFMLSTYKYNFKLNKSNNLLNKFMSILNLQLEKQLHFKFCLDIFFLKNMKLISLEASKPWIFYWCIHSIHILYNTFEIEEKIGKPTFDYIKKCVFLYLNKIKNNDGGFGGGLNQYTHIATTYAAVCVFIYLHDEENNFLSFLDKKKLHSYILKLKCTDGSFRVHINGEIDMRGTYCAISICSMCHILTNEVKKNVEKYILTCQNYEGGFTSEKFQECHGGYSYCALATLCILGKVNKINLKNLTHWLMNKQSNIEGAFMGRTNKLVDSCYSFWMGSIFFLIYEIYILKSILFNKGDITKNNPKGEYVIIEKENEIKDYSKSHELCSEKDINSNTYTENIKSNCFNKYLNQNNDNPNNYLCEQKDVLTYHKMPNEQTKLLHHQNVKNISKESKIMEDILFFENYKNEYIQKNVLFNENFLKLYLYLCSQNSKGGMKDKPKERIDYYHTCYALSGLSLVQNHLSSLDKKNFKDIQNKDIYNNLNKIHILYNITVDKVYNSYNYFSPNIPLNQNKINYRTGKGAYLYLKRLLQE
Kind of series: PfPFT inhibition, scintillation proximity assay with partially purified PfPFT. The format is biochemical. The conditions noted are these: for Selectivity: ratio of rat to Plasmodium PFT activity; for inhibition at 0.005 µM: read-out: % Inhibition of PfPFT at 5 nM, inhibitor at 5 nM; for inhibition at 0.05 µM: read-out: % Inhibition of PfPFT at 50 nM, inhibitor at 50 nM; for IC50: concentration decreasing transferase activity twofold.

In another series the test system is P. falciparum K1. Briefly: P. falciparum ED50 determination, [3H]-hypoxanthine incorporation, strain K1. The class given is cell-based, Plasmodium falciparum. The conditions noted are these: concentration decreasing hypoxanthine incorporation into parasites twofold, read-out: ED50 K1. A digest of the protocol: as §1
Series [2] can be described thus: Oral availability in mice, inhibitor concentration in plasma. The format is in vivo.
Series [3] can be described thus: Liver microsome metabolism (rat). The conditions noted are these: female, microsomes.
Procedure: as §2
Series [4] can be described thus: Oral availability in rats, inhibitor concentration in plasma. The format is in vivo. The conditions noted are these: rat.
The next series has as its system Caco-2 cells. Kind of series: Caco-2 apparent permeability. The conditions noted are these: apparent permeability coefficient. An excerpt: Absorption. Caco-2 cells cultured on a semi-permeable membrane form a highly functionalized epithelial barrier, with remarkable similarity to small intestinal epithelial cells, including high levels of brush border hydrolases and well developed junctional complexes.
(In general: Passage across Caco-2 layers is used to estimate intestinal permeability.)

Setting [5] is: Plasmodium falciparum, 3D7, strain 3D7.
Where [6] appears, read: Plasmodium falciparum, K1, strain K1.

Like-named read-outs stand apart in the source and are kept apart here. Marks after values point to notes of the source that are not given here.

By IC50 is commonly meant the concentration at which inhibition is half-maximal. The low end stands for higher potency, the high end for lower potency. The term inhibition denotes the share of the control response that was lost under treatment. In series [1] (liver microsomes, Microsome t1/2, Mouse, mouse liver microsomes), `Cn1cnc(S(=O)(=O)N(CCN(Cc2cncn2C)c2ccc(C#N)cc2)Cc2ccc(-c3ccccc3)cc2)c1` [Compound 8ag, 1-Methyl-1H-imidazole-4-sulfonic acid biphenyl-4-ylmethyl-{2-[(4-cyano-phenyl)-(3-methyl-3H-imidazol-4-ylmethyl)-amino]-ethyl}-amide] displayed a half-life at 0.71 µM of less than 4 min. The same molecule had an IC50 against Rat FTase of 880 nM. In the series with P. falciparum 3D7 (setting [5]), the EC50 was 700 nM. At PfPFT, the Selectivity is listed as 3.7, the inhibition at 0.005 µM was determined as 10% and the inhibition at 0.05 µM was 19%. Also, the EC50 in the series with P. falciparum K1 (setting [6]) turned out to be 2500 nM.
As to `Cc1ccccc1CN(CCN(Cc1cncn1C)c1ccc(-c2ccccc2)cc1)S(=O)(=O)c1cn(C)cn1` [Compound 8c, 1-Methyl-1H-imidazole-4-sulfonic acid {2-[biphenyl-4-yl-(3-methyl-3H-imidazol-4-ylmethyl)-amino]-ethyl}-(2-methyl-benzyl)-amide], the results for the half-inhibitory concentration (IC50) on Rat FTase and against PfPFT were greater than 1000 nM and 8 nM, respectively. Further, the EC50 came out at 2500 nM in the series on P. falciparum 3D7 (setting [5]), 2600 nM in the series with P. falciparum 3D7 (strain 3D7), 2600 nM in the series on P. falciparum K1 (setting [6]) and 2500 nM in the series on P. falciparum K1 (strain K1). The inhibition at 0.005 µM at PfPFT amounted to 49%. The inhibition at 0.05 µM on PfPFT was determined as 85%.
What is called Tmax is the time from dosing to the highest level. By Cmax is commonly meant the highest concentration seen after dosing. Turning to `Cn1cnc(S(=O)(=O)N(CCN(Cc2cncn2C)c2ccc(C#N)cc2)Cc2ccccc2)c1` [Compound 8d, 1-Methyl-1H-imidazole-4-sulfonic acid benzyl-{2-[(4-cyano-phenyl)-(3-methyl-3H-imidazol-4-ylmethyl)-amino]-ethyl}-amide], the “Oral Availability in Mice AUC” value in series [2] (mouse, in vivo, po, 1 mg) was found to be 112.0 µM·min. Further, the “Oral Availability in Mice t1/2” value in [2] (oral gavage, mice 1 mg, elimination half life) was 95.9 min. The half-life at 0.71 µM in [3] is 18 min; in series [1] (microsomes), 9 min. Further, the half-life in series [4] (plasma, 12.5 mg, oral gavage, rats, elimination half life, read-out: Oral Availability t1/2 (rats)) is 96 min. Also, in series [4] (plasma, oral administration to rats 12.5 mg), the Tmax is 30 min. Also, the highest level in series [4] (plasma, oral gavage, rats 12.5 mg in 90% saline, 3% ethanol, 7% tween) (Cmax) was 740 nM. On Rat FTase, this molecule showed a half-maximal inhibitory concentration (IC50) of 25 nM. Besides, the values for the EC50 with P. falciparum 3D7 (setting [5]), in the series with P. falciparum K1 (setting [6]) and with P. falciparum K1 (strain K1) were 349 nM, 375 nM and 367 nM, respectively. For the same molecule, on PfPFT, the inhibition at 0.005 µM is 86%. For the same molecule, the inhibition at 0.05 µM on PfPFT was 98%.
Molecule `Cn1cncc1CN(CCN(Cc1ccccc1)S(=O)(=O)c1ccccc1)c1ccc(C#N)cc1` [Compound 8e, N-Benzyl-N-{2-[(4-cyano-phenyl)-(3-methyl-3H-imidazol-4-ylmethyl)-amino]-ethyl}-benzenesulfonamide] gave an IC50 against Rat FTase of 13 nM. Further, the EC50 in the series with P. falciparum 3D7 (setting [5]) stood at 2500 nM. Moreover, at PfPFT, the Selectivity came to 1.5, the inhibition at 0.005 µM amounted to 18% and the inhibition at 0.05 µM was found to be 69%. In the series with P. falciparum K1 (setting [6]), the EC50 turned out to be 2250 nM.
For the molecule `Cn1cncc1CN(CCN(Cc1ccccc1)S(=O)(=O)c1ccccn1)c1ccc(C#N)cc1` [Compound 8g, Pyridine-2-sulfonic acid benzyl-{2-[(4-cyano-phenyl)-(3-methyl-3H-imidazol-4-ylmethyl)-amino]-ethyl}-amide], the Tmax in [2] (mouse, in vivo, po) was 30 min. In addition, the EC50 in the series with P. falciparum 3D7 (setting [5]) came to 570 nM. Besides, at PfPFT, the IC50 stood at 2.8 nM, the inhibition at 0.005 µM was determined as 64% and the inhibition at 0.05 µM came to 95%. Besides, the EC50 in the series with P. falciparum K1 (setting [6]) worked out at 2300 nM.
The molecule `CN(C)c1cccc2c(S(=O)(=O)N(CCN(Cc3cncn3C)c3ccc(C#N)cc3)Cc3ccccc3)cccc12` [Compound 8i, 5-Dimethylamino-naphthalene-1-sulfonic acid benzyl-{2-[(4-cyano-phenyl)-(3-methyl-3H-imidazol-4-ylmethyl)-amino]-ethyl}-amide] displayed an IC50 at Rat FTase of 180 nM. Besides, the EC50 in the series with P. falciparum 3D7 (setting [5]) stood at 300 nM. Besides, on PfPFT, the Selectivity stood at 3.3, the inhibition at 0.005 µM was 6% and the inhibition at 0.05 µM was 29%. In the series on P. falciparum K1 (setting [6]), the EC50 turned out to be 388 nM.
The molecule `Cn1cnc(S(=O)(=O)N(CCN(Cc2cncn2C)c2ccc(C#N)cc2)CC(=O)NC(C)(C)C)c1` [Compound 8o, N-tert-Butyl-2-[{2-[(4-cyano-phenyl)-(3-methyl-3H-imidazol-4-ylmethyl)-amino]-ethyl}-(1-methyl-1H-imidazole-4-sulfonyl)-amino]-acetamide] registered an IC50 on Rat FTase greater than 1000 nM. The EC50 in the series on P. falciparum 3D7 (setting [5]) was 2800 nM. On PfPFT, the IC50 was greater than 1000 nM, the inhibition at 0.005 µM was 4% and the inhibition at 0.05 µM stood at 6%. In addition, the EC50 in the series with P. falciparum K1 (setting [6]) is greater than 5000 nM.
In turn, `Cn1cnc(S(=O)(=O)N(CCN(Cc2cncn2C)c2ccc(C#N)cc2)CC2CCCCC2)c1` [Compound 8q, 1-Methyl-1H-imidazole-4-sulfonic acid {2-[(4-cyano-phenyl)-(3-methyl-3H-imidazol-4-ylmethyl)-amino]-ethyl}-cyclohexylmethyl-amide] registered a half-life at 0.71 µM in series [3] of 4 min. The half-life at 0.71 µM in series [1] (microsomes) is less than 5 min. Besides, the CaCo with Caco-2 cells worked out at 1.5 cm · s^−1 × 10^−6. Further, at Rat FTase, half-maximal inhibition (IC50) required 7.5 nM. Further, the EC50 with P. falciparum 3D7 (setting [5]) worked out at 220 nM. Also, on PfPFT, the Selectivity turned out to be 1.7, the inhibition at 0.005 µM is 63% and the inhibition at 0.05 µM was 93%. The EC50 in the series with P. falciparum K1 (setting [6]) was determined as 850 nM.
Take `Cn1cnc(S(=O)(=O)N(CCN(Cc2cncn2C)c2ccc(C#N)cc2)CC2CCN(C(=O)OC(C)(C)C)CC2)c1` [Compound 8v, 4-{[{2-[(4-Cyano-phenyl)-(3-methyl-3H-imidazol-4-ylmethyl)-amino]-ethyl}-(1-methyl-1H-imidazole-4-sulfonyl)-amino]-methyl}-piperidine-1-carboxylic acid tert-butyl ester]: the time of peak concentration (Tmax) in series [2] (mouse, in vivo, po) was no more than 40 min. Moreover, the EC50 in the series on P. falciparum 3D7 (setting [5]) turned out to be 88 nM. For the same molecule, at PfPFT, half-maximal inhibition (IC50) was put at 1.2 nM, the inhibition at 0.005 µM came out at 81% and the inhibition at 0.05 µM was 96%. The EC50 with P. falciparum K1 (setting [6]) stood at 54 nM.
As to `Cc1ccccc1CN(CCN(Cc1cncn1C)c1ccc(C#N)cc1)S(=O)(=O)c1cn(C)cn1` [Compound 8x, 1-Methyl-1H-imidazole-4-sulfonic acid {2-[(4-cyano-phenyl)-(3-methyl-3H-imidazol-4-ylmethyl)-amino]-ethyl}-(2-methyl-benzyl)-amide], the time of peak concentration (Tmax) in [2] (mouse, in vivo, po) was determined as 40 min. In [2] (mouse, in vivo, po, 1 mg), the highest level (Cmax) was 1050 nM. Moreover, the “Oral Availability AUC (^d, rats)” value in [4] (in vivo, po) is 103^d μM · min. Besides, half-maximal inhibition on Rat FTase (IC50) was put at 15.5 nM. The EC50 turned out to be 93 nM in the series with P. falciparum 3D7 (setting [5]) and 150 nM in the series with P. falciparum K1 (setting [6]). The inhibition at 0.005 µM at PfPFT worked out at 95%. Besides, on PfPFT, the inhibition at 0.05 µM came to 99%.
